Measured values reported in ChEMBL document CHEMBL1139774, “3-Hydroxy-4-methoxyindolomorphinans as delta opioid selective ligands” (Bioorg Med Chem Lett, 2007).

Assays:
Mu-type opioid receptor = Mu-type opioid receptor (Rattus norvegicus, UniProt P33535); assay: Displacement of [3H]DAMGO from rat recombinant mu opioid receptor expressed in C6 cells; assay type: cell-based
[1] = target: Kappa-type opioid receptor (Homo sapiens, UniProt P41145); assay: Displacement of [3H]U-69593 from human recombinant kappa opioid receptor expressed in CHO cells; assay type: cell-based
Rattus norvegicus = species: Rattus norvegicus; assay: Selectivity for rat recombinant delta opioid receptor over rat recombinant mu opioid receptor
[2] = target: Delta-type opioid receptor (Rattus norvegicus, UniProt P33533); assay: Displacement of [3H]p-Cl-DPDPE from rat recombinant delta opioid receptor expressed in C6 cells; assay type: cell-based
Sequence of Delta-type opioid receptor (P33533 whole entry): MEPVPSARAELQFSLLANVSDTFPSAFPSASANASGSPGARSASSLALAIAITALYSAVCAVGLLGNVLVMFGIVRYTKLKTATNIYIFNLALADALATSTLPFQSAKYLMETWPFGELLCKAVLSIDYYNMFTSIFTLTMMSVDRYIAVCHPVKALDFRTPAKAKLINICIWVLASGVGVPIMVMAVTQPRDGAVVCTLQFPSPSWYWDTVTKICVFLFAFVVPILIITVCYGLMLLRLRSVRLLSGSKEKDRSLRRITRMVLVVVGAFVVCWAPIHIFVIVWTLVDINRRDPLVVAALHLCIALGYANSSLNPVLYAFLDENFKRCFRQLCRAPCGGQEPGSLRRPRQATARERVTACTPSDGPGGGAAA

Sequence of Mu-type opioid receptor (P33535 whole entry): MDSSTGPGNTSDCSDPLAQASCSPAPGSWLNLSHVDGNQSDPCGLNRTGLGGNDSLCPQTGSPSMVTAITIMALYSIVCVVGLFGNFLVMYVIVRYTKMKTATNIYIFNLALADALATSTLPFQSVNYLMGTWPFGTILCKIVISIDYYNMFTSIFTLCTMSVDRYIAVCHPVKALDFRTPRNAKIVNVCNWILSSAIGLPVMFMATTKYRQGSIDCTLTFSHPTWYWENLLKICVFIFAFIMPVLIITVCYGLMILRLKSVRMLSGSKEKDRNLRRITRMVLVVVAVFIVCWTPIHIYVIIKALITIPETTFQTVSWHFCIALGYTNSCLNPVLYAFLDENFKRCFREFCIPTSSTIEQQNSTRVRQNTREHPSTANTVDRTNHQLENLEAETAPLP
Sequence of Kappa-type opioid receptor (P41145 whole entry): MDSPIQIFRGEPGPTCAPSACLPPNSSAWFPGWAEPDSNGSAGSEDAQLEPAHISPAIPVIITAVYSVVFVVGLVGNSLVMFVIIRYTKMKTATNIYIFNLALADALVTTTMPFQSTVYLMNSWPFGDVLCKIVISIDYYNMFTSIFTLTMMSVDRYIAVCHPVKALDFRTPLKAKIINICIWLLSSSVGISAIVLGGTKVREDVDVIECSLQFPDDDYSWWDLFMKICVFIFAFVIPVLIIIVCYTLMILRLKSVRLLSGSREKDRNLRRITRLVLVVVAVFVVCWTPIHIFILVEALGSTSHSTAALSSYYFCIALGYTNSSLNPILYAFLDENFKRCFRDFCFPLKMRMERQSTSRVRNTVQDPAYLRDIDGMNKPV

Row | SMILES | Ki (Mu-type opioid receptor) | Ki [1] | Ratio Ki (Rattus norvegicus) | Ki [2]
1 | COc1c(O)ccc2c1[C@]13CCN(C)[C@H](C2)[C@]1(O)Cc1c([nH]c2ccccc12)C3 | 474 nM | 582 nM | 105 | 4.5 nM
2 | COc1c(O)ccc2c1[C@]13CCN(CC4CC4)[C@H](C2)[C@]1(O)Cc1c([nH]c2ccccc12)C3 | 58 nM | 79 nM | 145 | 0.4 nM
3 | COc1ccc2c(c1OC)[C@]13CCN(CC4CC4)[C@H](C2)[C@]1(O)Cc1c([nH]c2ccccc12)C3 | 1720 nM | 1440 nM | 90 | 19 nM
4 | CN1CC[C@]23c4c5ccc(O)c4O[C@H]2c2[nH]c4ccccc4c2C[C@@]3(O)[C@H]1C5 [OXYMORPHINDOLE CHLORIDE] | 105 nM | 515 nM | 115 | 0.9 nM
5 | COc1ccc2c(c1OC)[C@]13CCN(C)[C@H](C2)[C@]1(O)Cc1c([nH]c2ccccc12)C3 | 7590 nM | > 7000 nM | 185 | 41 nM
